Measurements from patent US8871680B2, “Herbicidal compositions comprising 4-amino-3-chloro-5-fluoro-6-(4-chloro-2-fluoro-3-methoxyphenyl) pyridine-2-carboxylic acid or a derivative thereof and a di-methoxy-pyrimidine and derivatives thereof” (Dow AgroSciences LLC, priority 2012, dated 2014).

Tests used:
[1] = test system: ECHOR; test: In-water applied weed control, transplanted paddy rice (greenhouse); type: in vivo, Echinochloa oryzoides (Ard.) Fritsch
Description: (§1) Weed seeds or nutlets of the desired test plant species were planted in puddled soil (mud) prepared by mixing a shredded, non-sterilized mineral soil (50.5 percent silt, 25.5 percent clay, and 24 percent sand, with a pH of about 7.6 and an organic matter content of about 2.9 percent) and water at a 1:1 volumetric ratio. The prepared mud was dispensed in 365 mL aliquots into 16-ounce (oz.) non-perforated plastic pots with a surface area of 86.59 square centimeters (cm^2) leaving a headspace of 3 centimeters (cm) in each pot. Mud was allowed to dry overnight prior to planting or transplanting. Rice seeds were planted in Sun Gro MetroMix® 306 planting mixture, which typically has a pH of 6.0 to 6.8 and an organic matter content of about 30 percent, in plastic plug trays. Seedlings at the second or third leaf stage of growth were transplanted into 860 mL of mud contained in 32-oz. non-perforated plastic pots with a surface area of 86.59 cm^2 4 days prior to herbicide application. The paddy was created by filling the headspace of the pots with 2.5 to 3 cm of water. When required to ensure good germination and healthy plants, a fungicide treatment and/or other chemical or physical treatment was applied. The plants were grown for 4-22 days in a greenhouse with an approximate 14 hr photoperiod which was maintained at about 29′C during the day and 26° C. during the night. Nutrients were added as Osmocote® (19:6:12, N:P:K+minor nutrients) at 2 g per 16-oz. pot and 4 g per 32-oz. pot. Water was added on a regular basis to maintain the paddy flood, and supplemental lighting was provided with overhead metal halide 1000-Watt lamps as necessary. The plants were employed for testing when they reached the first through fourth true leaf stage.
(§2) Treatments consisted of the acid or esters of 4-amino-3-chloro-5-fluoro-6-(4-chloro-2-fluoro-3-methoxy-phenyl)pyridine-2-carboxylic acid (compound A) each formulated as an SC and various herbicidal components alone and in combination. Forms of compound A were applied on an acid equivalent basis.
(§3) Other herbicidal components were applied on an active ingredient basis and included the dimethoxy-pyrimidine acid acetolactate synthase (ALS)-inhibiting herbicides bispyribac-sodium formulated as Regiment® 80 WP, pyriminobac-methyl formulated as Hie Clean®, and pyriftalid (technical grade material).
(§4) Treatment requirements for each compound or herbicidal component were calculated based upon the rates being tested, the concentration of active ingredient or acid equivalent in the formulation, an application volume of 2 mL per component per pot, and an application area of 86.59 cm^2 per pot.
(§5) For formulated compounds, a measured amount was placed in an individual 100 or 200 mL glass vial and was dissolved in a volume of 1.25% (v/v) Agri-Dex® crop oil concentrate to obtain application solutions.
(§6) For technical grade compounds, a weighed amount was placed in an individual 100 to 200 mL glass vial and was dissolved in a volume of acetone to obtain concentrated stock solutions. […] The concentrated stock solutions obtained were diluted with an equivalent volume of an aqueous mixture containing 2.5% (v/v) crop oil concentrate so that the final application solutions contained 1.25% (v/v) crop oil concentrate.
(§7) Applications were made by injecting with a pipetter appropriate amounts of the application solutions, individually and sequentially, into the aqueous layer of the paddy.
Control plants were treated in the same manner with the solvent blank. […]

[2] = test system: SCPMA; test: as above; type: in vivo, Bolboschoenus maritimus (L.) Palla; conditions: 70 gae/ha
Description: as §1, §2, §3, §4, §5, §6, §7
(§8) Control plants were treated in the same manner with the solvent blank. Applications were made so that all treated plant material received the same concentrations of acetone and crop oil concentrate.
(§9) The treated plants and control plants were placed in a greenhouse as described above and water was added as needed to maintain a paddy flood. […]

[3] = test system: ECHCG; test: Postemergence foliar-applied weed control, direct seeded rice (greenhouse); type: in vivo, Echinochloa crusgalli (L.) Beauv.; conditions: 70 gai/ha
Excerpt: (§10) Seeds or nutlets of the desired test plant species were planted in a soil matrix prepared by mixing a loam or sandy loam soil (e.g., 28.6 percent silt, 18.8 percent clay, and 52.6 percent sand, with a pH of about 5.8 and an organic matter content of about 1.8 percent) and calcareous grit in an 80 to 20 ratio. The soil matrix was contained in plastic pots with a volume of 1 quart and a surface area of 83.6 square centimeters (cm^2). When required to ensure good germination and healthy plants, a fungicide treatment and/or other chemical or physical treatment was applied. The plants were grown for 8-22 days in a greenhouse with an approximate 14 hr photoperiod which was maintained at about 29° C. during the day and 26° C. during the night. Nutrients (Peters Excel® 15-5-15 5-Ca 2-Mg and iron chelate) were applied in the irrigation solution as needed and water was added on a regular basis. Supplemental lighting was provided with overhead metal halide 1000-Watt lamps as necessary. The plants were employed for testing when they reached the first through fourth true leaf stage. […]
(§11) Treatment requirements were calculated based upon the rates being tested, the concentration of active ingredient or acid equivalent in the formulation, and a 12 mL application volume at a rate of 187 L/ha.
(§12) For treatments comprised of formulated compounds, measured amounts of compounds were placed individually in 25 mL glass vials and diluted in a volume of 1.25% (v/v) Agri-Dex® crop oil concentrated to obtain 12× stock solutions. […]
(§13) For treatments comprised of formulated and technical compounds, weighed amounts of the technical materials were placed individually in 25 mL glass vials and dissolved in a volume of 97:3 v/v acetone/DMSO to obtain 12× stock solutions, and measured amounts of the formulated compounds were placed individually in 25 mL glass vials and diluted in a volume of 1.5% (v/v) crop oil concentrate or water to obtain 12× stock solutions. […]

[4] = test system: CYPRO; test: In-water applied weed control, transplanted paddy rice (greenhouse); type: in vivo, Cyperus rotundus L.
Description: as §1, §2, §3, §4, §5, §6, §7, §8, §9

[5] = test system: LEFCH; test: Postemergence foliar-applied weed control, direct seeded rice (greenhouse); type: in vivo, Leptochloa chinensis (L.) Nees
Excerpt: Seeds or nutlets of the desired test plant species were planted in a soil matrix prepared by mixing a loam or sandy loam soil (e.g., 28.6 percent silt, 18.8 percent clay, and 52.6 percent sand, with a pH of about 5.8 and an organic matter content of about 1.8 percent) and calcareous grit in an 80 to 20 ratio. The soil matrix was contained in plastic pots with a volume of 1 quart and a surface area of 83.6 square centimeters (cm^2). When required to ensure good germination and healthy plants, a fungicide treatment and/or other chemical or physical treatment was applied. The plants were grown for 8-22 days in a greenhouse with an approximate 14 hr photoperiod which was maintained at about 29° C. during the day and 26° C. during the night. Nutrients (Peters Excel® 15-5-15 5-Ca 2-Mg and iron chelate) were applied in the irrigation solution as needed and water was added on a regular basis. Supplemental lighting was provided with overhead metal halide 1000-Watt lamps as necessary. The plants were employed for testing when they reached the first through fourth true leaf stage.
Treatments consisted of the acid or esters of 4-amino-3-chloro-5-fluoro-6-(4-chloro-2-fluoro-3-methoxy-phenyl)pyridine-2-carboxylic acid (Compound A), each formulated as an SC (suspension concentrate), and various herbicidal components alone and in combination. Forms of compound A were applied on an acid equivalent basis.
Other herbicidal components were applied on an active ingredient basis and included the dimethoxy-pyrimidine acid acetolactate synthase (ALS)-inhibiting herbicides bispyribac-sodium formulated as Regiment® 80WP, pyribenzoxim (technical grade material), pyriminobac-methyl formulated as Hie-Clean® 1.2% GR dissolved in water, and pyriftalid (technical grade material).
as §11
For treatments comprised of formulated compounds, measured amounts of compounds were placed individually in 25 mL glass vials and diluted in a volume of 1.25% (v/v) Agri-Dex® crop oil concentrated to obtain 12× stock solutions. […] Application solutions were prepared by adding an appropriate amount of each stock solution (e.g., 1 mL) and diluted to the appropriate final concentrations with the addition of 10 mL of an aqueous mixture of 1.25% (v/v) crop oil concentrate so that the final spray solutions contained 1.25+/−0.005% (v/v) crop oil concentrate.
For treatments comprised of technical compounds, weighed amounts can be placed individually in 25 mL glass vials and dissolved in a volume of 97:3 v/v acetone/DMSO to obtain 12× stock solutions. […] Application solutions can be prepared by adding an appropriate amount of each stock solution (e.g., 1 mL) and diluted to the appropriate final concentrations with the addition of 10 mL of an aqueous mixture of 1.5% (v/v) crop oil concentrate so that the final spray solutions contain 1.25% (v/v) crop oil concentrate. When technical materials are used, the concentrated stock solutions can be added to the spray solutions so that the final acetone and DMSO concentrations of the application solutions are 16.2% and 0.5%, respectively.
as §13

[6] = test system: FIMMI; test: In-water applied weed control, transplanted paddy rice (greenhouse); type: in vivo, Fimbristylis miliacea (L.) Vahl
Description: as §1, §2, §3, §4, §5, §6, §7, §8, §9

[7] = test system: BRAPP; test: Postemergence foliar-applied weed control, direct seeded rice (greenhouse); type: in vivo, Brachiaria platyphylla (Griseb.) Nash
Excerpt: as §10, §11, §12, §13

## CCCCOC(=O)c1nc(-c2ccc(Cl)c(OC)c2F)c(F)c(N)c1Cl [Compound A n-Butyl Ester]
[1]; 35 gae/ha
  Visual Weed Control (%)-20 DAA ECHOR Obs: 35%
[1]; 70 gae/ha
  Visual Weed Control (%)-20 DAA ECHOR Obs: 40%
[2]
  Visual Weed Control (%)-20 DAA SCPMA Obs: 0%

## COc1cc(OC)nc(Oc2cccc(Oc3nc(OC)cc(OC)n3)c2C(=O)ON=C(c2ccccc2)c2ccccc2)n1 [Pyribenzoxim, diphenylmethanone O-[2,6-bis[(4,6-dimethoxy-2-pyrimidinyl)oxy]benzoyl]oxime, reference compound]
[3]
  Visual Weed Control (%) - 20 DAA ECHCG Obs: 85%

## COc1cc(OC)nc(Sc2cccc3c2C(=O)OC3C)n1 (centres unmarked) [Pyriftalid, 7-[(4,6-dimethoxy-2-pyrimidinyl)thio]-3-methyl-1 (3H)-isobenzofuranone, reference compound]
[4]; 45 gai/ha, Table 12
  Visual Weed Control (%)-21 DAA CYPRO Obs: 0%
[4]; 45 gai/ha, Table 13
  Visual Weed Control (%)-21 DAA CYPRO Obs: 0%
[4]; 90 gai/ha, Table 12
  Visual Weed Control (%)-21 DAA CYPRO Obs: 0%
[4]; 90 gai/ha, Table 13
  Visual Weed Control (%)-21 DAA CYPRO Obs: 0%
[5]; 45 gai/ha
  Visual Weed Control (%)-22 DAA LEFCH Obs: 0%
[5]; 90 gai/ha
  Visual Weed Control (%)-22 DAA LEFCH Obs: 0%
[6]; 45 gai/ha
  Visual Weed Control (%)-21 DAA FIMMI Obs: 50%
[6]; 90 gai/ha
  Visual Weed Control (%)-21 DAA FIMMI Obs: 30%
[7]; 45 gai/ha
  Visual Weed Control (%)-22 DAA BRAPP Obs: 0%
[7]; 90 gai/ha
  Visual Weed Control (%)-22 DAA BRAPP Obs: 0%
